{
  "source": "paper PMC10033419",
  "about": "“Blocking NS3–NS4B interaction inhibits dengue virus in non-human primates” (Nature, 2023)",
  "test_system": "DENV-2 RL strain",
  "experiment": "Day 3 viraemia model, high viral inoculum (10^6 PFU)",
  "type": "in vivo, AG129 mice",
  "conditions": "for Av Log 10 (Ave/Med: median): group median; for Copy number / Log 10 (copy number): individual animals, listed as 64281802-AAA",
  "key": {"[1]": {"conditions": "Study 1+2+3 compiled data, 0,2 mg/kg/d"}, "[2]": {"conditions": "Study 1+2+3 compiled data, 0,6 mg/kg/d"}, "[3]": {"conditions": "Study 1+2+3 compiled data, 2 mg/kg/d, 2 mg/kg/day"}, "[4]": {"conditions": "Study 1+2+3 compiled data, 6 mg/kg/d, 6 mg/kg/day"}, "[5]": {"conditions": "Study 1+2+3 compiled data, 20 mg/kg/d, 20 mg/kg/day"}, "[6]": {"conditions": "Study 1+2+3 compiled data, 60 mg/kg/d, 60 mg/kg/day"}},
  "note": "“And” between values parts separate entries of the source, which are not always exact repeats. Equal entries are not always repeated.",
  "data": [
    {"compound": "COc1cc(N[C@H](C(=O)c2c[nH]c3ccc(OC(F)(F)F)cc23)c2ccc(Cl)cc2OC)cc(S(C)(=O)=O)c1", "note": "[JNJ-1802]", "values": [
      {"measurement": "viraemia day 3 p.i., average Log 10", "setting": "0,3 mg/kg/d q.d.", "value": 6.63, "unit": "log10 viral RNA copies/mL"},
      {"measurement": "viraemia day 3 p.i., median Log 10", "setting": "0,3 mg/kg/d q.d.", "value": 6.66, "unit": "log10 viral RNA copies/mL"},
      {"measurement": "viraemia day 3 p.i., average Log 10", "setting": "3 mg/kg/d q.d.", "value": 3.84, "unit": "log10 viral RNA copies/mL"},
      {"measurement": "viraemia day 3 p.i., median Log 10", "setting": "3 mg/kg/d q.d.", "value": 4.27, "unit": "log10 viral RNA copies/mL"},
      {"measurement": "mice with undetectable viral RNA", "setting": "20 mg per kg per day b.i.d.", "value": "13 out of 14"},
      {"measurement": "mice with undetectable viral RNA", "setting": "30 mg per kg q.d.", "value": "five out of eight"},
      {"measurement": "viraemia day 3 p.i., average Log 10", "setting": "30 mg/kg/d q.d.", "value": 3.09, "unit": "log10 viral RNA copies/mL"},
      {"measurement": "viraemia day 3 p.i., median Log 10", "setting": "30 mg/kg/d q.d.", "value": 2.59, "unit": "log10 viral RNA copies/mL"},
      {"measurement": "mice with undetectable viral RNA", "setting": "60 mg per kg per day b.i.d.", "value": "four out of seven"},
      {"measurement": "Av Log 10 (average)", "setting": "Study 1+2+3 compiled data, 0,2 mg/kg/d, group average", "value": 5.92},
      {"measurement": "Av Log 10 (Ave/Med: median)", "setting": "[1]", "value": 6.05},
      {"measurement": "Copy number", "setting": "[1]", "value": "1.86E+06 and 1.20E+06 and 1.13E+06 and 8.80E+05 and 2.24E+05 and 2.37E+06 and 1.58E+06 and 7.37E+04 and 5.97E+06 and 8.67E+05 and 1.42E+06 and 1.06E+06 and 9.43E+04"},
      {"measurement": "Log 10 (copy number)", "setting": "[1]", "value": "6.27 and 6.08 and 6.05 and 5.94 and 5.35 and 6.38 and 6.20 and 4.87 and 6.78 and 6.15 and 6.03 and 4.97"},
      {"measurement": "Av Log 10 (average)", "setting": "Study 1+2+3 compiled data, 0,6 mg/kg/d, group average", "value": 4.22},
      {"measurement": "Av Log 10 (Ave/Med: median)", "setting": "[2]", "value": 4.52},
      {"measurement": "Copy number", "setting": "[2]", "value": "3.93E+02"},
      {"measurement": "Log 10 (copy number)", "setting": "[2]", "value": 2.59},
      {"measurement": "Av Log 10 (average)", "setting": "Study 1+2+3 compiled data, 2 mg/kg/d, group average", "value": 4.68},
      {"measurement": "Av Log 10 (Ave/Med: median)", "setting": "Study 1+2+3 compiled data, 2 mg/kg/d", "value": 4.60},
      {"measurement": "Copy number", "setting": "[3]", "value": "8.93E+05 and 4.00E+05 and 3.96E+05 and 1.24E+06 and 6.51E+05 and 1.32E+04 and 2.02E+05 and 2.06E+04"},
      {"measurement": "Log 10 (copy number)", "setting": "[3]", "value": "5.95 and 5.60 and 6.09 and 5.81 and 3.95"},
      {"measurement": "Av Log 10 (average)", "setting": "Study 1+2+3 compiled data, 6 mg/kg/d, group average", "value": 4.33},
      {"measurement": "Av Log 10 (Ave/Med: median)", "setting": "Study 1+2+3 compiled data, 6 mg/kg/d", "value": 4.37},
      {"measurement": "Copy number", "setting": "[4]", "value": "5.85E+04 and 1.40E+05 and 1.03E+05 and 2.15E+04 and 1.94E+05 and 8.27E+04 and 1.06E+04 and 2.60E+04 and 9.12E+03 and 5.17E+03 and 3.62E+04 and 5.97E+03 and 3.93E+02"},
      {"measurement": "Log 10 (copy number)", "setting": "[4]", "value": "4.77 and 5.15 and 5.01 and 4.33 and 5.29 and 4.92 and 4.03 and 4.41 and 3.96 and 3.71 and 4.56 and 4.11 and 3.78 and 2.59"},
      {"measurement": "Av Log 10 (average)", "setting": "Study 1+2+3 compiled data, 20 mg/kg/d, group average", "value": 2.70},
      {"measurement": "Av Log 10 (Ave/Med: median)", "setting": "Study 1+2+3 compiled data, 20 mg/kg/d", "value": 2.59},
      {"measurement": "Copy number", "setting": "[5]", "value": "1.05E+04 and 3.93E+02"},
      {"measurement": "Log 10 (copy number)", "setting": "[5]", "value": "4.02 and 2.59"},
      {"measurement": "Av Log 10 (average)", "setting": "Study 1+2+3 compiled data, 60 mg/kg/d, group average", "value": 3.05},
      {"measurement": "Av Log 10 (Ave/Med: median)", "setting": "Study 1+2+3 compiled data, 60 mg/kg/d", "value": 2.59},
      {"measurement": "Copy number", "setting": "[6]", "value": "3.93E+02 and 1.22E+04 and 1.55E+03 and 5.28E+03"},
      {"measurement": "Log 10 (copy number)", "setting": "[6]", "value": "2.59 and 4.09 and 3.19 and 3.72"},
      {"measurement": "Av Log 10 (average)", "setting": "Study 1 - 160222, 2 mg/kg/d, group average", "value": 5.30},
      {"measurement": "Av Log 10 (Ave/Med: median)", "setting": "Study 1 - 160222, 2 mg/kg/d", "value": 5.60},
      {"measurement": "Copy number", "setting": "Study 1 - 160222, 2 mg/kg/d", "value": "8.93E+05 and 4.00E+05 and 3.96E+05 and 1.24E+06 and 6.51E+05 and 1.32E+04 and 2.02E+05"},
      {"measurement": "Log 10 (copy number)", "setting": "Study 1 - 160222, 2 mg/kg/d", "value": "5.95 and 5.60 and 6.09 and 5.81 and 3.95 and 4.12 and 5.30"},
      {"measurement": "Av Log 10 (average)", "setting": "Study 1 - 160222, 6 mg/kg/d, group average", "value": 4.74},
      {"measurement": "Av Log 10 (Ave/Med: median)", "setting": "Study 1 - 160222, 6 mg/kg/d", "value": 4.84},
      {"measurement": "Copy number", "setting": "Study 1 - 160222, 6 mg/kg/d", "value": "5.85E+04 and 1.40E+05 and 1.03E+05 and 2.15E+04 and 1.94E+05 and 8.27E+04 and 1.06E+04 and 2.60E+04"},
      {"measurement": "Log 10 (copy number)", "setting": "Study 1 - 160222, 6 mg/kg/d", "value": "4.77 and 5.15 and 5.01 and 4.33 and 5.29 and 4.92 and 4.03 and 4.41"},
      {"measurement": "Av Log 10 (average)", "setting": "Study 1 - 160222, 60 mg/kg/d, group average", "value": 3.05},
      {"measurement": "Av Log 10 (Ave/Med: median)", "setting": "Study 1 - 160222, 60 mg/kg/d", "value": 2.59},
      {"measurement": "Copy number", "setting": "Study 1 - 160222, 60 mg/kg/d", "value": "3.93E+02 and 1.22E+04 and 1.55E+03 and 5.28E+03"},
      {"measurement": "Log 10 (copy number)", "setting": "Study 1 - 160222, 60 mg/kg/d", "value": "2.59 and 4.09 and 3.19 and 3.72"},
      {"measurement": "Av Log 10 (average)", "setting": "Study 2 - 160510, 0,6 mg/kg/d, group average", "value": 4.52},
      {"measurement": "Av Log 10 (Ave/Med: median)", "setting": "Study 2 - 160510, 0,6 mg/kg/d", "value": 4.66},
      {"measurement": "Copy number", "setting": "Study 2 - 160510, 0,6 mg/kg/d", "value": "3.02E+04 and 4.20E+05 and 7.57E+04 and 6.60E+04 and 3.93E+02 and 1.74E+04 and 1.01E+05 and 3.12E+04"},
      {"measurement": "Log 10 (copy number)", "setting": "Study 2 - 160510, 0,6 mg/kg/d", "value": "4.48 and 5.62 and 4.88 and 4.82 and 2.59 and 4.24 and 5.00 and 4.49"},
      {"measurement": "Av Log 10 (average)", "setting": "Study 2 - 160510, 2 mg/kg/d, group average", "value": 4.07},
      {"measurement": "Av Log 10 (Ave/Med: median)", "setting": "Study 2 - 160510, 2 mg/kg/d", "value": 4.30},
      {"measurement": "Copy number", "setting": "Study 2 - 160510, 2 mg/kg/d", "value": "2.06E+04 and 6.20E+04 and 1.87E+04 and 2.60E+04 and 3.93E+02 and 1.87E+05"},
      {"measurement": "Log 10 (copy number)", "setting": "Study 2 - 160510, 2 mg/kg/d", "value": "4.31 and 4.28 and 4.79 and 4.27 and 4.41 and 2.59 and 5.27"},
      {"measurement": "Av Log 10 (average)", "setting": "Study 2 - 160510, 6 mg/kg/d, group average", "value": 3.78},
      {"measurement": "Av Log 10 (Ave/Med: median)", "setting": "Study 2 - 160510, 6 mg/kg/d", "value": 3.87},
      {"measurement": "Copy number", "setting": "Study 2 - 160510, 6 mg/kg/d", "value": "9.12E+03 and 5.17E+03 and 3.62E+04 and 5.97E+03 and 3.93E+02"},
      {"measurement": "Log 10 (copy number)", "setting": "Study 2 - 160510, 6 mg/kg/d", "value": "3.96 and 3.71 and 4.56 and 4.11 and 3.78 and 2.59"},
      {"measurement": "Av Log 10 (average)", "setting": "Study 2 - 160510, 20 mg/kg/d, group average", "value": 2.83},
      {"measurement": "Av Log 10 (Ave/Med: median)", "setting": "Study 2 - 160510, 20 mg/kg/d", "value": 2.59},
      {"measurement": "Copy number", "setting": "Study 2 - 160510, 20 mg/kg/d", "value": "1.05E+04 and 3.93E+02"},
      {"measurement": "Log 10 (copy number)", "setting": "Study 2 - 160510, 20 mg/kg/d", "value": "4.02 and 2.59"},
      {"measurement": "Av Log 10 (average)", "setting": "Study 3 - 170410, 0,2 mg/kg/d, first group of 8, group average", "value": 6.01}
    ]}
  ]
}
